Measurements published in US9388175B2, “2-aniline-4-aryl substituted thiazole derivatives” (Janssen Pharmaceutica N.V., priority 2005, dated 2016).

Target: T1, hα7-wt nAChR stably expressed in the GH4C1 cell line (Homo sapiens, UniProt P36544)
T1 construct: expressed in transfected cells
Assay: Ca2+ flux imaging (FLIPR) of PAM activity with choline as agonist
Assay type: cell-based
Details: efficacy relative to 100 μM choline alone (defined as 1); peak fluorescence, fluo-4AM; compounds tested 0.1 μM to 30 μM, efficacy criterion at 10 μM
From the text: Stable expression in mammalian cells in general and rat GH4C1 cells in particular, of cDNA clones encoding the human α7 wild-type sequence (hα7-wt nAChR) and in which the coding region is placed downstream of a promoter results in the appearance of functional α7 nAChRs on the surface of the mammalian cells. This technique has provided a powerful means of assessing the function of α7 wild-type protein. Given the fact that the cation permeability of the α7 nicotinic receptor preferentially favours calcium, fluorescent imaging of Ca^2+ flux through the hα7-wt nAChR stably expressed in the GH4C1 cell line was used as a first means of assaying modulator activity of the compounds of the present invention.
a) Assay Buffer • Hanks buffered saline solution (HBSS, Invitrogen, Belgium), supplemented with 10 mM HEPES (Invitrogen, Belgium), CaCl2 to a final concentration of 5 mM, 0.1% Bovine serum albumin (Sigma-Aldrich NV, Belgium), 2.5 mM probenecid (Sigma-Aldrich NV, Belgium).
b) Calcium-Sensitive Dye—Fluo-4AM • Fluo-4AM (Molecular Probes, USA) was dissolved in DMSO containing 10% Pluronic acid (Molecular Probes, USA) to give a stock solution which was aliquoted and could be stored at −20° C. until later use. On the day of the experiment Fluo-4AM stock was defrosted and diluted in DMEM/F12 (Invitrogen, Belgium) containing 2.5 mM probenicid and 0.1% BSA to give a final concentration of 2 μM.
c) 96-well Plates • BD Biocoat poly-D-lysine 96-well black/clear bottom plates (BD Biosciences, Belgium)
d) Calcium Flux Measurement • A Fluorimetric Imaging Plate Reader (FLIPR, Molecular Devices Corporation, Sunnyvale, USA) was used to measure intracellular free-calcium flux signals
Monolayers of hα7-wt nAChR-expressing cells were grown in multi-well plates, in particular black-sided, transparent bottomed 96 well plates coated with poly-D-lysine for 24 hours prior to loading with a fluorescent calcium indicator, in a particular embodiment loading with fluo-3 or fluo-4AM for up to 90 minutes, in an even more particular embodiment loading with fluo-4AM for up to 90 minutes, and in a preferred embodiment loading with fluo-4AM for 60 minutes.
In a particular embodiment, the α7 nicotinic receptor agonist was choline, a more particular embodiment choline applied at a sub-maximal concentration of 100 μM.
A control response to choline was calculated on each plate from the difference in peak fluorescence in wells receiving either choline or assay buffer alone. Compounds of the present invention were tested at a concentration range from 0.1 μM to 30 μM.
The activity ranges are defined as follows; A denotes an activity range from 1.1 till 1.5, B denotes an activity range from 1.5 till 2.0, C denotes an activity range from 2.0 till 3.0, D denotes an activity range from 3.0 till 4.5 and E denotes an efficacy from at least 4.5.

T1 sequence (P36544 23-502): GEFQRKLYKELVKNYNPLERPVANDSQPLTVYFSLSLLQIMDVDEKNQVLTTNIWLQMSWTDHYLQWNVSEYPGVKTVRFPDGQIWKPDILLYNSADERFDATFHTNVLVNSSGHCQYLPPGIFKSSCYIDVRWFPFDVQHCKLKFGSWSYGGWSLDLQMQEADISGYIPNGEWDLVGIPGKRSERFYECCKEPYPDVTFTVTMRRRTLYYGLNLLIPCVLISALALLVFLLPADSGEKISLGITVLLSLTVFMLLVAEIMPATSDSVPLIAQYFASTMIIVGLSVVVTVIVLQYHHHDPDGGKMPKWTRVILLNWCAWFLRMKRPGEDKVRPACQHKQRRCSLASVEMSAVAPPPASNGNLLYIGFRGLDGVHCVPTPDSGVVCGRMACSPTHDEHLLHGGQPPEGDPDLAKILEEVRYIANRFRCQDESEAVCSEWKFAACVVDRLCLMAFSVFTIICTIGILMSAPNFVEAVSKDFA

SMILES | Activity Range
N#CCc1sc(Nc2cccc(C(F)(F)F)c2)nc1-c1ccc(Cl)cc1Cl [Compound 23, [4-(2,4-Dichloro-phenyl)-2-(3-trifluoromethyl-phenylamino)-thiazol-5-yl]-acetonitrile] | D (D denotes an activity range from 3.0 till 4.5)
CSc1ccc(Nc2nc(-c3cnc4ccccn34)cs2)cn1 [Compound 49] | E (E denotes an efficacy from at least 4.5)
CCOC(=O)c1sc(Nc2cc(Cl)ccc2Cl)nc1C(F)F [Compound 153] | E (E denotes an efficacy from at least 4.5)
OCc1sc(Nc2ccc(Cl)cc2Cl)nc1-c1ccccc1 [Compound 3] | D (D denotes an activity range from 3.0 till 4.5)
Clc1ccc(Nc2nc(-c3cnc4cnccn34)cs2)cc1 [Compound 75] | C (C denotes an activity range from 2.0 till 3.0)
Fc1ccc(Nc2nc(-c3cnc4ccccn34)cs2)cc1C(F)(F)F [Compound 9] | C (C denotes an activity range from 2.0 till 3.0)
COc1ccccc1Nc1nc(-c2ccccc2Cl)cs1 [Compound 42] | B (B denotes an activity range from 1.5 till 2.0)
Cc1ccc(Nc2nc(-c3ccccc3)c(C(=O)Nc3cccnc3)s2)c(C)c1 [Compound 170, 5-Thiazolecarboxamide, 2-[(2,4-dimethylphenyl)amino]-4-phenyl-N-3-pyridinyl-] | E (E denotes an efficacy from at least 4.5)
Cc1sc(Nc2ccc(C(F)(F)F)cc2)nc1-c1cccnc1 [Compound 87] | C (C denotes an activity range from 2.0 till 3.0)
Cc1ccc(Nc2nc(-c3cccnc3)cs2)cc1 [Compound 77] | C (C denotes an activity range from 2.0 till 3.0)
CCOC(=O)NCc1sc(Nc2cccc(C(F)(F)F)c2)nc1-c1cccnc1 [Compound 168] | E (E denotes an efficacy from at least 4.5)
Cc1sc(Nc2ccc(Cl)nc2)nc1-c1cccnc1 [Compound 88] | C (C denotes an activity range from 2.0 till 3.0)
Cc1cccc(Nc2nc(-c3cnc4sccn34)cs2)c1 [Compound 59] | B (B denotes an activity range from 1.5 till 2.0)
CCOC(=O)c1sc(Nc2ccc(OC)cc2)nc1C1CC1 [Compound 146] | E (E denotes an efficacy from at least 4.5)
COc1ccc(OC)c(-c2csc(Nc3cc(F)ccc3C)n2)c1 [Compound 33] | D (D denotes an activity range from 3.0 till 4.5)
FC(F)(F)c1cccc(Nc2nc(-c3cnc4ccccn34)cs2)c1 [Compound 71] | B (B denotes an activity range from 1.5 till 2.0)
N#CCc1sc(Nc2cccc(C(F)(F)F)c2)nc1-c1ccccc1 [int. 3, [4-Phenyl-2-(3-trifluoromethyl-phenylamino)-thiazol-5-yl]-acetonitrile] | D (D denotes an activity range from 3.0 till 4.5)
FC(F)(F)c1cccc(Nc2nc(-c3ccccc3)cs2)c1 [int. 1] | C (C denotes an activity range from 2.0 till 3.0)
OCc1sc(Nc2ccc(F)c(C(F)(F)F)c2)nc1-c1ccncc1 [Compound 89] | E (E denotes an efficacy from at least 4.5)
FC(F)(F)c1cccc(Nc2nc(-c3cnc4ccccn34)cs2)c1 [Compound 56] | C (C denotes an activity range from 2.0 till 3.0)
COc1ccc(-c2csc(Nc3ccc(Cl)cc3Cl)n2)c(OC)c1 [Compound 41] | A (A denotes an activity range from 1.1 till 1.5)
COCc1nc(Nc2cc(Cl)ccc2Cl)sc1C(=O)OC [Compound 140] | E (E denotes an efficacy from at least 4.5)
CCOC(=O)c1sc(Nc2cccc(C(F)(F)F)c2)nc1C1CCCN(C(=O)OCc2ccccc2)C1 (stereo not drawn) [Compound 160] | E (E denotes an efficacy from at least 4.5)
CCOC(=O)c1sc(Nc2ccc(OC)cc2)nc1C1CCCN(C(=O)OCc2ccccc2)C1 (stereo not drawn) [Compound 104] | E (E denotes an efficacy from at least 4.5)
Cc1cccc(Nc2nc(-c3cnc4ccccn34)cs2)c1 [Compound 51] | C (C denotes an activity range from 2.0 till 3.0)
c1ccn2c(-c3csc(Nc4ccc5c(c4)CCO5)n3)cnc2c1 [Compound 46] | C (C denotes an activity range from 2.0 till 3.0)

SMILES | Activity Range
COc1cc(OC)c(Nc2nc(-c3ccc4c(c3)OCCO4)c(CC(N)=O)s2)cc1Cl [Compound 96, 2-[(5-chloro-2,4-dimethoxyphenyl)amino]-4-(2,3-dihydro-1,4-benzodioxin-6-yl)-5-thiazoleacetamide] | E (E denotes an efficacy from at least 4.5)
Clc1cccc(Nc2nc(-c3cnc4sccn34)cs2)c1 [Compound 61] | C (C denotes an activity range from 2.0 till 3.0)
CCOC(=O)c1sc(Nc2ccc(OC)cc2)nc1C(F)(F)F [Compound 154] | E (E denotes an efficacy from at least 4.5)
Fc1cccc(-c2nc(Nc3cccc(C(F)(F)F)c3)sc2F)c1 [Compound 7] | C (C denotes an activity range from 2.0 till 3.0)
CCOC(=O)c1sc(Nc2cccc(C(F)(F)F)c2)nc1C1CC1 [Compound 145] | E (E denotes an efficacy from at least 4.5)
CCCc1nc(Nc2cccc(C(F)(F)F)c2)sc1CO [Compound 117] | E (E denotes an efficacy from at least 4.5)
CC(=O)c1sc(Nc2cc(Cl)ccc2Cl)nc1C [Compound 110] | E (E denotes an efficacy from at least 4.5)
FC(F)(F)c1ccc(Nc2nc(-c3cccnc3)cs2)cn1 [Compound 65] | C (C denotes an activity range from 2.0 till 3.0)
Cc1sc(Nc2cccc(C(F)(F)F)c2)nc1-c1cccnc1 [Compound 101] | D (D denotes an activity range from 3.0 till 4.5)
COCCc1nc(Nc2ccc(OC)cc2)sc1C(=O)OC [Compound 158] | E (E denotes an efficacy from at least 4.5)
O=C(Cc1sc(Nc2cc(Cl)ccc2Cl)nc1-c1ccncc1)N1CCCC1 [Compound 162] | E (E denotes an efficacy from at least 4.5)
Brc1ccc(Nc2nc(-c3cnc4ccccn34)cs2)cc1 [Compound 58] | C (C denotes an activity range from 2.0 till 3.0)
COc1cc(OC)c(Nc2nc(-c3ccncc3)c(CC(=O)N3CCCC3)s2)cc1Cl [Compound 135] | E (E denotes an efficacy from at least 4.5)
Cc1sc(Nc2ccc(C(F)(F)F)cc2)nc1-c1cccnc1 [Compound 86] | D (D denotes an activity range from 3.0 till 4.5)
COc1ccc(Nc2nc(-c3ccccc3)c(Br)s2)cc1 [Compound 93] | E (E denotes an efficacy from at least 4.5)
Fc1cccc(-c2nc(Nc3cccc(C(F)(F)F)c3)sc2Br)c1 [Compound 6] | C (C denotes an activity range from 2.0 till 3.0)
CCOC(=O)c1sc(Nc2cccc(C(F)(F)F)c2)nc1C [Compound 143] | E (E denotes an efficacy from at least 4.5)
Fc1ccc(Nc2nc(-c3cccnc3)c(CN3CCOCC3)s2)cc1C(F)(F)F [Compound 90, (4-Fluoro-3-trifluoromethyl-phenyl)-(5-morpholin-4-ylmethyl-4-pyridin-3-yl-thiazol-2-yl)-amine] | C (C denotes an activity range from 2.0 till 3.0)
Clc1ccc(Nc2nc(-c3cnc4ccccn34)cs2)cc1 [Compound 53] | D (D denotes an activity range from 3.0 till 4.5)
COCCc1nc(Nc2cc(Cl)ccc2Cl)sc1C(=O)OC [Compound 157] | E (E denotes an efficacy from at least 4.5)
COc1cc(OC)c(Nc2nc(-c3ccc(F)c(F)c3)c(CC(N)=O)s2)cc1Cl [Compound 130] | E (E denotes an efficacy from at least 4.5)
Cc1cccc(Nc2nc(-c3cccnc3)c(Cl)s2)c1 [Compound 94] | D (D denotes an activity range from 3.0 till 4.5)
Cc1cncc(-c2csc(Nc3cccc(Cl)c3Cl)n2)c1 [Compound 67] | C (C denotes an activity range from 2.0 till 3.0)
COc1ccc(Nc2nc(-c3cccnc3)c(C)s2)cc1 [Compound 139] | D (D denotes an activity range from 3.0 till 4.5)
COc1cc(OC)c(Nc2nc(-c3ccc4c(c3)OCCO4)c(CC#N)s2)cc1Cl [int. 20] | E (E denotes an efficacy from at least 4.5)
